Laboratory results published in PubChem BioAssay (NCI).
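Following 48 hours of exposure in 96-well plates, responses at five concentrations were used to interpolate endpoints linearly. The concentration for 50% growth inhibition is given as GI50. TGI is the concentration that stops growth completely.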

How the values were obtained:
Test in all cases: inhibition of tumour cell growth, NCI panel, 48 h
[1] = test system: KM12 colon
[2] = test system: HCT-15 colon
[3] = test system: HT29 colon
[4] = test system: 786-0 renal
[5] = test system: HOP-62 NSCLC
[6] = test system: SK-MEL-5 melanoma
[7] = test system: SW-620 colon
[8] = test system: SF-539 CNS
[9] = test system: ACHN renal
[10] = test system: HS 578T breast
[11] = test system: A498 renal
[12] = test system: EKVX NSCLC
[13] = test system: COLO 205 colon
[14] = test system: MDA-MB-231 breast
[15] = test system: K-562 leukemia
[16] = test system: OVCAR-5 ovarian
[17] = test system: SK-OV-3 ovarian
[18] = test system: NCI/ADR-RES ovarian
[19] = test system: CCRF-CEM leukemia
[20] = test system: MOLT-4 leukemia
[21] = test system: HCC-2998 colon
[22] = test system: SNB-75 CNS
[23] = test system: HL-60(TB) leukemia
[24] = test system: U251 CNS
[25] = test system: HCT-116 colon
[26] = test system: M14 melanoma
[27] = test system: MALME-3M melanoma
[28] = test system: CAKI-1 renal
[29] = test system: SK-MEL-2 melanoma
[30] = test system: SF-295 CNS
[31] = test system: NCI-H460 lung
[32] = test system: SNB-19 CNS
[33] = test system: DU-145 prostate
[34] = test system: UO-31 renal
[35] = test system: NCI-H522 lung
[36] = test system: RXF 393 renal
[37] = test system: OVCAR-4 ovarian
[38] = test system: OVCAR-8 ovarian
[39] = test system: UACC-62 melanoma
[40] = test system: MDA-MB-435
[41] = test system: UACC-257 melanoma
[42] = test system: SR leukemia
[43] = test system: SF-268 CNS
[44] = test system: PC-3 prostate
[45] = test system: NCI-H226 lung
[46] = test system: TK-10 renal
[47] = test system: BT-549 breast
[48] = test system: RPMI-8226 leukemia
[49] = test system: SN12C renal
[50] = test system: T-47D breast
[51] = test system: IGROV1 ovarian
[52] = test system: LOX IMVI melanoma
[53] = test system: MCF7 breast
[54] = test system: A549 NSCLC
[55] = test system: SK-MEL-28 melanoma
[56] = test system: HOP-92 NSCLC
[57] = test system: NCI-H23 lung
[58] = test system: OVCAR-3 ovarian

Molecule `CC1(C)CC[C@]23CC[C@]4(C)[C@H](CC[C@@H]5[C@@]6(C)CC[C@H](NCO)C(C)(C)[C@@H]6CC[C@]54C)[C@H]2[C@H]1OC3` has a GI50 [1] of 17.5 µM, a TGI [1] of 31.3 µM and a GI50 [2] of 2.9 µM. For the same molecule, the TGI [2] was 10.9 µM, the GI50 [3] was 5.25 µM and the TGI [3] was 17.4 µM. It also gave a GI50 [4] of 3.77 µM, a TGI [4] of 15.3 µM and a GI50 [5] of 15.5 µM. For the same molecule, the TGI [5] was 35.7 µM, the GI50 [6] was 15.3 µM and the TGI [6] was 28.6 µM. It also gave a GI50 [7] of 1.7 µM, a TGI [7] of 3.7 µM and a GI50 [8] of 12.3 µM. It also gave a TGI [8] of 26.5 µM, a GI50 [9] of 5.01 µM and a TGI [9] of 17.1 µM. It also gave a GI50 [10] of 15.3 µM, a TGI [10] of 42 µM and a GI50 [11] of 14.1 µM. It also gave a TGI [11] of 27.1 µM, a GI50 [12] of 16.9 µM and a TGI [12] of 32.5 µM. For the same molecule, the GI50 [13] was 2.06 µM, the TGI [13] was 4.18 µM and the GI50 [14] was 4 µM. The TGI [14] was 17.4 µM, the GI50 [15] was 2.35 µM and the TGI [15] was 6.9 µM. It also gave a GI50 [16] of 11.8 µM, a TGI [16] of 24.1 µM and a GI50 [17] of 15 µM. The TGI [17] was 31.4 µM, the GI50 [18] was 14 µM and the TGI [18] was 30.9 µM. It also gave a GI50 [19] of 5.93 µM, a TGI [19] of over 100 µM and a GI50 [20] of 3.16 µM. The TGI [20] was 16.1 µM, the GI50 [21] was 1.95 µM and the TGI [21] was 4.17 µM. The GI50 [22] was 16.8 µM, the TGI [22] was 33.4 µM and the GI50 [23] was 1.58 µM. The TGI [23] was 4.62 µM, the GI50 [24] was 2.5 µM and the TGI [24] was 8.16 µM. It also gave a GI50 [25] of 3.7 µM, a TGI [25] of 12.9 µM and a GI50 [26] of 11.5 µM. For the same molecule, the TGI [26] was 23.7 µM, the GI50 [27] was 16 µM and the TGI [27] was 34.3 µM. For the same molecule, the GI50 [28] was 10.2 µM, the TGI [28] was 23.3 µM and the GI50 [29] was 14.2 µM. For the same molecule, the TGI [29] was 27.2 µM, the GI50 [30] was 14.4 µM and the TGI [30] was 28.7 µM. For the same molecule, the GI50 [31] was 2.24 µM, the TGI [31] was 5.03 µM and the GI50 [32] was 16.7 µM. It also gave a TGI [32] of 36.6 µM, a GI50 [33] of 14.1 µM and a TGI [33] of 32 µM. The GI50 [34] was 13.3 µM, the TGI [34] was 28.1 µM and the GI50 [35] was 16.3 µM. For the same molecule, the TGI [35] was 32 µM, the GI50 [36] was 6.16 µM and the TGI [36] was 20.4 µM. For the same molecule, the GI50 [37] was 14.3 µM, the TGI [37] was 31 µM and the GI50 [38] was 3.25 µM. For the same molecule, the TGI [38] was 11.9 µM, the GI50 [39] was 16.9 µM and the TGI [39] was 31.5 µM. For the same molecule, the GI50 [40] was 12.9 µM, the TGI [40] was 25.6 µM and the GI50 [41] was 14.7 µM. It also gave a TGI [41] of 28.3 µM, a GI50 [42] of 0.741 µM and a TGI [42] of 6.71 µM. It also gave a GI50 [43] of 16.3 µM, a TGI [43] of 37.9 µM and a GI50 [44] of 10.8 µM. The TGI [44] was 31.6 µM, the GI50 [45] was 14.9 µM and the TGI [45] was 34 µM. It also gave a GI50 [46] of 22.6 µM, a TGI [46] of 38 µM and a GI50 [47] of 15.6 µM. For the same molecule, the TGI [47] was 28.9 µM, the GI50 [48] was 3.64 µM and the TGI [48] was 18.7 µM. It also gave a GI50 [49] of 12 µM, a TGI [49] of 30 µM and a GI50 [50] of 7.72 µM. For the same molecule, the TGI [50] was 28.9 µM, the GI50 [51] was 7.56 µM and the TGI [51] was 22.6 µM. The GI50 [52] was 1.52 µM, the TGI [52] was 2.95 µM and the GI50 [53] was 2.25 µM. The TGI [53] was 6.4 µM, the GI50 [54] was 4.39 µM and the TGI [54] was 18.1 µM. It also gave a GI50 [55] of 15.5 µM, a TGI [55] of 28.9 µM and a GI50 [56] of 2.82 µM. It also gave a TGI [56] of 18.3 µM.
In the case of `CN1CCN(Cc2ccc(NC(=O)c3cncc(C#Cc4cnc5ccc(OCC(F)F)nn45)c3)cc2C(F)(F)F)CC1`, the GI50 [57] is reported as 0.34 µM, the TGI [57] is reported as 1.23 µM and the GI50 [1] is reported as 0.005 µM. The TGI [1] was 0.739 µM, the GI50 [2] was 0.207 µM and the TGI [2] was 0.909 µM. The GI50 [3] was 0.282 µM, the TGI [3] was 1 µM and the GI50 [4] was 0.451 µM. For the same molecule, the TGI [4] was 1.1 µM, the GI50 [5] was 0.729 µM and the TGI [5] was 1.64 µM. It also gave a GI50 [6] of 0.511 µM, a TGI [6] of 1.22 µM and a GI50 [7] of 0.275 µM. It also gave a TGI [7] of 1.2 µM, a GI50 [8] of 0.438 µM and a TGI [8] of 1.1 µM. It also gave a GI50 [9] of 0.482 µM, a TGI [9] of 1.21 µM and a GI50 [10] of 0.944 µM. For the same molecule, the TGI [10] was 3.2 µM, the GI50 [11] was 1.37 µM and the TGI [11] was 2.54 µM. For the same molecule, the GI50 [12] was 0.348 µM, the TGI [12] was 1.02 µM and the GI50 [13] was 0.428 µM. The TGI [13] was 1.15 µM, the GI50 [14] was 0.181 µM and the TGI [14] was 0.841 µM. It also gave a GI50 [15] of 0.005 µM, a TGI [15] of 0.818 µM and a GI50 [16] of 0.68 µM. The TGI [16] was 1.89 µM, the GI50 [17] was 1.51 µM and the TGI [17] was 3.78 µM. For the same molecule, the GI50 [18] was 1.04 µM, the TGI [18] was 5.09 µM and the GI50 [19] was 0.192 µM. The TGI [19] was 4.31 µM, the GI50 [20] was 0.299 µM and the TGI [20] was 2.79 µM. For the same molecule, the GI50 [21] was 0.516 µM, the TGI [21] was 1.61 µM and the GI50 [22] was 0.58 µM. For the same molecule, the TGI [22] was 1.26 µM, the GI50 [23] was 0.222 µM and the TGI [23] was 0.724 µM. For the same molecule, the GI50 [24] was 0.646 µM, the TGI [24] was 1.34 µM and the GI50 [25] was 0.164 µM. For the same molecule, the TGI [25] was 0.606 µM, the GI50 [26] was 0.167 µM and the TGI [26] was 0.619 µM. The GI50 [27] was 0.12 µM, the TGI [27] was 0.485 µM and the GI50 [28] was 0.473 µM. It also gave a TGI [28] of 1.39 µM, a GI50 [29] of 0.6 µM and a TGI [29] of 1.28 µM. The GI50 [30] was 0.387 µM, the TGI [30] was 1.2 µM and the GI50 [31] was 0.369 µM. The TGI [31] was 1.07 µM, the GI50 [32] was 1.09 µM and the TGI [32] was 2.85 µM. It also gave a GI50 [33] of 0.339 µM, a TGI [33] of 0.929 µM and a GI50 [34] of 0.571 µM. It also gave a TGI [34] of 1.2 µM, a GI50 [35] of 0.666 µM and a TGI [35] of 1.53 µM. For the same molecule, the GI50 [36] was 0.379 µM, the TGI [36] was 1.06 µM and the GI50 [37] was 0.562 µM. For the same molecule, the TGI [37] was 1.51 µM, the GI50 [38] was 0.705 µM and the TGI [38] was 1.56 µM. The GI50 [39] was 0.63 µM, the TGI [39] was 1.33 µM and the GI50 [40] was 0.218 µM. It also gave a TGI [40] of 0.812 µM, a GI50 [41] of 0.282 µM and a TGI [41] of 0.963 µM. It also gave a GI50 [42] of 0.206 µM, a TGI [42] of 1.1 µM and a GI50 [43] of 0.52 µM. It also gave a TGI [43] of 1.43 µM, a GI50 [44] of 0.457 µM and a TGI [44] of 1.97 µM. The GI50 [45] was 0.451 µM, the TGI [45] was 1.27 µM and the GI50 [46] was 0.749 µM. For the same molecule, the TGI [46] was 1.46 µM, the GI50 [47] was 0.93 µM and the TGI [47] was 1.69 µM. The GI50 [48] was 0.515 µM, the TGI [48] was 2.18 µM and the GI50 [49] was 0.5 µM. It also gave a TGI [49] of 1.17 µM, a GI50 [50] of 0.419 µM and a TGI [50] of 1.17 µM. For the same molecule, the GI50 [51] was 0.242 µM, the TGI [51] was 1.03 µM and the GI50 [52] was 0.235 µM. It also gave a TGI [52] of 0.838 µM, a GI50 [53] of 0.11 µM and a TGI [53] of 0.649 µM. It also gave a GI50 [54] of 0.221 µM, a TGI [54] of 0.612 µM and a GI50 [58] of 0.46 µM. The TGI [58] was 1.26 µM, the GI50 [55] was 0.67 µM and the TGI [55] was 1.52 µM. The GI50 [56] was 0.101 µM and the TGI [56] was 0.359 µM.
